Measured values reported in article PMC5624969, “Coupled reactions by coupled enzymes: alcohol to lactone cascade with alcohol dehydrogenase–cyclohexanone monooxygenase fusions” (Applied Microbiology and Biotechnology, 2017).

Experiments:
TmCHMO [1] = molecular target: T1, TmCHMO (Thermocrispum municipale, UniProt A0A1L1QK40); experiment: ThermoFAD, release of FAD on unfolding; type: binding; details: 10 uM enzyme, +0.5 °C/min
T1 construct: recombinant from E. coli, gene from pBAD-His-Tag-SUMO-TmCHMO
T1 sequence (A0A1L1QK40 1-541): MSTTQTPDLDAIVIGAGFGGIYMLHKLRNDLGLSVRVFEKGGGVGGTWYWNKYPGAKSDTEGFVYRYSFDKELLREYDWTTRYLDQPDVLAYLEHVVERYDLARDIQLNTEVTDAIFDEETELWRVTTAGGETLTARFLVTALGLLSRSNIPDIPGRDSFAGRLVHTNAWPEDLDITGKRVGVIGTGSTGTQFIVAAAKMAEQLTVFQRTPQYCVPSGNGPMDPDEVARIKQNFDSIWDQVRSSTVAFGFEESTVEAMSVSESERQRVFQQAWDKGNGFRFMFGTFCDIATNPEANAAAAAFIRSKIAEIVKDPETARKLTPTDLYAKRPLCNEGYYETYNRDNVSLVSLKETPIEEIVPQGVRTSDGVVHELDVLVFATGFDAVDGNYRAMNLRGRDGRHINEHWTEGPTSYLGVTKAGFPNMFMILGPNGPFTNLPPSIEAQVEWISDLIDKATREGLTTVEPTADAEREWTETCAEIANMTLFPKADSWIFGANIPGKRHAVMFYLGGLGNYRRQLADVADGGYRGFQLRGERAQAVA

TmCHMO [2] = molecular target: T1, TmCHMO; experiment: inhibition of thioanisole oxidation, NADPH depletion at […] nm; type: biochemical; details: read-out: K I (estimated)
TmCHMO [3] = molecular target: T1, TmCHMO; experiment: as above; type: biochemical; details: read-out: 50% reduction of activity

## Cc1cc2nc3c(=O)[nH]c(=O)nc-3n(C[C@H](O)[C@H](O)[C@H](O)COP(=O)(O)OP(=O)(O)OC[C@H]3O[C@@H](n4cnc5c(N)ncnc54)[C@H](O)[C@@H]3O)c2cc1C [FAD]
TmCHMO [1]
  ThermoFAD, release of FAD on unfolding: the release of the FAD from TmCHMO upon unfolding could be detected

## OC1CCCCC1 [cyclohexanol]
TmCHMO [2]
  Ki: < 2 mM

## O=C1CCCCCO1 [ε-caprolactone]
TmCHMO [3]
  IC50: 66 mM
